# In patent publication US9580430B2, “9H-pyrimido[4,5-B]indoles and related analogs as BET bromodomain inhibitors” (THE REGENTS OF THE UNIVERSITY OF MICHIGAN, priority 2014, dated 2017):
# Where two headings read alike, the source gives them in different places.
# What was measured:
# MOLM-13 = assay: Cell growth inhibition, MOLM-13 leukemia cells (CellTiter-Glo); type: cell-based; details: Homo sapiens, MOLM-13, 96 h; 4 days; read-out: IC50 (nM) MOLM-13 Cell Line (CellTiter-Glo assay)
# Summary of the method: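 MOLM-13 leukemia cells treated with compounds; viability read by CellTiter-Glo luminescence after 10-20 min reagent incubation at room temperature. IC50 derived from luminescent signal.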
# recombinant BRD4 BD2 = biological target: T1, recombinant BRD4 BD2 (Homo sapiens, UniProt O60885); assay: Competitive fluorescence-polarization (FP) binding assay, BRD4 BD2; details: for Ki: read-out: Binding affinities (FP) BRD4BD2 Ki; as to IC50 (nM) BRD4 BD2: probe 1.5 nM
# T1 construct: for recombinant BRD4 BD1 and BRD4 BD2 proteins
# Summary of the method: (§1)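 FP competition with FAM-labelled probe (ZBA248 or BRD-1F) against preincubated protein/probe complex; BD1 at 10 nM and BD2 at 6 nM final, in 100 mM potassium phosphate pH 6.5, 0.01% Triton X-100. 30 min, room temperature. IC50 by nonlinear regression; Ki also derived, using probe Kd from protein saturation.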
# [1] = system: VCaP prostate cancer cells; assay: Cell growth inhibition, VCaP prostate cancer cells (Cell-Titer GLO); type: cell-based; details: for IC50: Homo sapiens, VCaP, 96 h incubation, read-out: IC50 (nM) VCaP Cell Line (CellTiter-Glo assay)
# Description: For prostate cancer cell lines, VCaP prostate cancer cells were grown in DMEM with Glutamax (Gibco) supplemented with 10% FBS (Invitrogen) in 5% CO2 cell culture incubator. All cell lines were tested and found to be free of mycoplasma contamination. Cells were seeded in 96-well plates at 2,000-10,000 cells per well (optimum density for growth) in a total volume of […] media containing 10% FBS. Serially diluted compounds in […] media were added to the cells 12 h later. […] The values were normalized and IC50 was calculated using GraphPad Prism software.
# Cells were seeded in 96-well plates at 2000-10,000 cells/well (optimum density for growth) in a total volume of 100 μl media containing 10% FBS. Serially diluted compounds in 100 μl media were added to the cells 12 h later. Following 96 h. incubation, cell viability was assessed by Cell-Titer GLO (Promega). The values were normalized and IC50 was calculated using GraphPad Prism software. […] After 12 days cells were fixed with methanol, stained with crystal violet and photographed. For colorimetric assays, the stained wells were treated with 500 μl 10% acetic acid and the absorbance was measured at 560 nm using a spectrophotometer.
# MDA-MB-436 = assay: Cell growth inhibition, MDA-MB-436 breast cancer cells (WST-8); type: cell-based; details: Homo sapiens, 4 days
# Summary of the method: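 IC50 was computed from WST-8-based cell counting in MDA-MB-436 cells, with absorbance read at 450 nm.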
# recombinant BRD4 BD1 = biological target: T2, recombinant BRD4 BD1 (Homo sapiens, UniProt O60885); assay: Competitive fluorescence-polarization (FP) binding assay, BRD4 BD1; details: for Ki: read-out: Binding affinities (FP) BRD4BD1 Ki; as to IC50 (nM) BRD4 BD1: probe 1.5 nM
# T2 construct: for recombinant BRD4 BD1 and BRD4 BD2 proteins
# Summary of the method: as §1
# LNCaP = assay: Cell growth inhibition, LNCaP prostate cancer cells (Cell-Titer GLO); type: cell-based; details: Homo sapiens, read-out: Cellular data LNCaP IC50
# BRD2/3/4 = assay: ChIP-seq of BRD2/3/4 in VCaP cells; type: cell-based; details: 500 nM, 12 h
# Description: (§2) The ChIP assays for BRD2, BRD3, BRD4, AR, RNA PolII, ERG and H3K27ac were performed using HighCell ChIP kit (Diagenode) according to manufacturer's protocol. […] Next, cells were cross-linked for 10 min. with 1% formaldehyde. […] Chromatin equivalent to 5×10^6 cells were used for ChIP using different antibodies. ChIP DNA was isolated (IPure Kit, Diagenode) from samples by incubation with the antibody at 4° C. overnight followed by wash and reversal of cross-linking. The ChIP-seq sample preparation for sequencing was performed according to the manufacturer's instructions (Illumina). […] A single A-base was added to fragment ends by Klenow fragment (3′ to 5′ exo minus; NEB) followed by ligation of Illumina adaptors (Quick ligase, NEB). The adaptor-modified DNA fragments were enriched by PCR using the Illumina Barcode primers and Phusion DNA polymerase (NEB). PCR products were size selected using 3% NuSieve agarose gels (Lonza) followed by gel extraction using QIAEX II reagents (QIAGEN). Libraries were quantified with the Bioanalyzer 2100 (Agilent) and sequenced on the Illumina HiSeq 2000 Sequencer (100 nucleotide read length).
# AR = assay: ChIP-seq of AR in DHT-stimulated VCaP cells; type: cell-based; details: DHT 10 nM plus JQ1 500 nM, MDV3100 10 μM or Bicalutamide 25 μM, FIG. 17
# Description: as §2
# For enrichment plots shown in FIGS. 17, 19 and 20, identified peaks for each sample are centered by peak summit and average coverage per million was counted within 1500 bp relative to the peak center.
# VCaP xenograft model = assay: Spontaneous metastasis in the VCaP xenograft model (human Alu qPCR); type: in vivo, mice; details: femur, liver and spleen; JQ1 50 mg/kg, MDV3100 10 mg/kg
# Description: (§3) Four week-old male SCID C.B17 mice were procured from a breeding colony at University of Michigan. All procedures involving mice were approved by the University Committee on Use and Care of Animals (UCUCA) at the University of Michigan and conform to all regulatory standards. Mice were anesthetized using 2% Isoflurane (inhalation) and 2×10^6 VCaP prostate cancer cells suspended in 100 μl of PBS with 50% Matrigel (BD Biosciences) were implanted subcutaneously into the dorsal flank on both sides of the mice. […] Growth in tumor volume was recorded using digital calipers and tumor volumes were estimated using the formula (π/6) (L×W^2), where L=length of tumor and W=width. Loss of body weight during the course of the study was also monitored. At the end of the studies mice were sacrificed and tumors extracted and weighed. Additionally, femur bone marrow, liver and spleen were harvested to examine spontaneous metastasis by detecting human-Alu sequence. […] All procedures involving mice were approved by the University Committee on Use and Care of Animals (UCUCA) at the University of Michigan and conform to all regulatory standards.
# VCaP tumor xenograft = system: VCaP tumor xenograft
# Description: as §3
# [2] = competitive FP assay, protein 6 nM, probe […], read-out: IC50 (nM) BRD4 BD2
# [3] = MDA-MB-436, 96 h, read-out: IC50 (nM) MDA-MB-436 Cell Line (WST assay)
# [4] = competitive FP assay, protein 10 nM, probe […], read-out: IC50 (nM) BRD4 BD1
# [5] = FP competitive binding, BRD4 BD2, read-out: Binding affinities (FP) BRD4BD2 IC50
# [6] = FP competitive binding, BRD4 BD2
# [7] = 96 h, MDA-MB-436 cells, read-out: Cellular data MDA-MB-436 IC50
# [8] = FP competitive binding, BRD4 BD1, read-out: Binding affinities (FP) BRD4BD1 IC50
# [9] = FP competitive binding, BRD4 BD1
IC50 (MOLM-13),IC50 (recombinant BRD4 BD2; [2]),IC50 [1],IC50 (MDA-MB-436; [3]),IC50 (recombinant BRD4 BD1; [4]),IC50 (LNCaP),IC50 (recombinant BRD4 BD2; [5]),Ki (recombinant BRD4 BD2; [6]),IC50 (MDA-MB-436; [7]),IC50 (recombinant BRD4 BD1; [8]),Ki (recombinant BRD4 BD1; [9]),SMILES,other results
4.3 nM,1.2 nM,23.4 nM,11.3 nM,4.5 nM,,,,,,,"COc1cc2c(cc1-c1c(C)noc1C)[nH]c1nc(C)nc(Nc3c4c(nn3C(C)C)CCC4)c12 [Cpd. No. 137, 7-(3,5-Dimethylisoxazol-4-yl)-N-(2-isopropyl-2,4,5,6-tetrahydrocyclopenta[c]pyrazol-3-yl)-6-methoxy-2-methyl-9H-pyrimido[4,5-b]indol-4-amine]",
1.6 nM,1.1 nM,19.3 nM,13.6 nM,4.6 nM,,,,,,,"CCn1nc2c(c1Nc1nc(C)nc3[nH]c4cc(-c5c(C)noc5C)c(OC)cc4c13)CCC2 [Cpd. No. 141, 7-(3,5-Dimethylisoxazol-4-yl)-N-(2-ethyl-2,4,5,6-tetrahydrocyclopenta[c]pyrazol-3-yl)-6-methoxy-2-methyl-9H-pyrimido[4,5-b]indol-4-amine]",
3 nM,0.7 nM,53.8 nM,14.5 nM,2.1 nM,,,,,,,"CCn1nc(C2CC2)cc1Nc1nc(C)nc2[nH]c3cc(-c4c(C)noc4C)c(OC)cc3c12 [Cpd. No. 144, N-(3-Cyclopropyl-1-ethyl-1H-pyrazol-5-yl)-7-(3,5-dimethylisoxazol-4-yl)-6-methoxy-2-methyl-9H-pyrimido[4,5-b]indol-4-amine]",
17 nM,12.3 nM,64.7 nM,71 nM,4.9 nM,,,,,,,"COc1cc2c(cc1-c1c(C)noc1C)[nH]c1nc(C)nc(Nc3c(C)c(C)nn3C(C)(C)C)c12 [Cpd. No. 185, N-(1-(tert-butyl)-3,4-dimethyl-1H-pyrazol-5-yl)-7-(3,5-dimethylisoxazol-4-yl)-6-methoxy-2-methyl-9H-pyrimido[4,5-b]indol-4-amine]",
,,,,,0.136 µM,40 nM,0.013 µM,141 nM,18 nM,0.0041 µM,"COc1cc2c([nH]c3ccnc(Nc4cc(C5CC5)nn4C)c32)c(F)c1-c1c(C)noc1C [Cpd. No. 309, N-(3-cyclopropyl-1-methyl-1H-pyrazol-5-yl)-7-(3,5-dimethylisoxazol-4-yl)-6-fluoro-8-methoxy-5H-pyrido[4,3-b]indol-1-amine]",
,,,,,0.021 µM,5.9 nM,0.0012 µM,15 nM,11.8 nM,0.0016 µM,"COc1cc2c(cc1-c1c(C)noc1C)[nH]c1cncc(Nc3cc(C4CC4)nn3C)c12 [Cpd. No. 323, N-(3-Cyclopropyl-1-methyl-1H-pyrazol-5-yl)-7-(3,5-dimethylisoxazol-4-yl)-6-methoxy-9H-pyrido[3,4-b]indol-4-amine]",
,,,,,,,,,,,CCNC(=O)C[C@@H]1N=C(c2ccc(Cl)cc2)c2cc(OC)ccc2-n2c(C)nnc21 [I-BET762],recruitment of BRD2/3/4 to the chromatin (BRD2/3/4): reduction in the recruitment
,,,,,,,,,,,"CNC(=O)c1ccc(N2C(=S)N(c3ccc(C#N)c(C(F)(F)F)c3)C(=O)C2(C)C)cc1F [MDV3100, enzalutamide]","recruitment of AR to target loci (AR): markedly attenuated; spontaneous metastasis (VCaP xenograft model): evidence of metastases in femur and liver; VCaP cell viability in vitro ([1]; 8 days, FIG. 22): Marginal cell death; tumor volume/weight (VCaP tumor xenograft; VCaP tumor-bearing mice, JQ1 50 mg/kg, MDV3100 10 mg/kg, 5 days/week, FIGS. 23-25): less pronounced effect; tolerability (VCaP tumor xenograft; mouse, in vivo): well tolerated"
,,,,,0.674 µM,214 nM,0.067 µM,646 nM,199 nM,0.068 µM,"COc1nc2c(cc1-c1c(C)noc1C)[nH]c1nc(C)nc(Nc3cc(C4CC4)nn3C)c12 [compound 322, N-(3-cyclopropyl-1-methyl-1H-pyrazol-5-yl)-7-(3,5-dimethylisoxazol-4-yl)-6-methoxy-2-methyl-9H-pyrido[2′,3′:4,5]pyrrolo[2,3-d] pyrimidin-4-amine]",
